In patent publication US20230227409A1, “QUINOLINONE DERIVATIVES AS METHIONINE ADENOSYLTRANSFERASE 2A INHIBITORS” (IDEAYA BIOSCIENCES, INC., priority 2020, published 2023):

What follows are molecules tested against T1, Human MAT2A (Homo sapiens, UniProt P31153) (assay: Phosphate Sensor Fluorescence Assay (Biologic Example A)). Settings: MAT2A enzyme inhibition, Biological Example A; 500 uM L-methionine, 500 uM ATP; class symbols.
T1 construct: Human MAT2A: Cepter, amino acids 1-395; purchased Cepter clone ID 329, lot 00023-123; clone ID 334, lot 00023-148
T1 sequence (P31153 whole entry, the tested form may be a part): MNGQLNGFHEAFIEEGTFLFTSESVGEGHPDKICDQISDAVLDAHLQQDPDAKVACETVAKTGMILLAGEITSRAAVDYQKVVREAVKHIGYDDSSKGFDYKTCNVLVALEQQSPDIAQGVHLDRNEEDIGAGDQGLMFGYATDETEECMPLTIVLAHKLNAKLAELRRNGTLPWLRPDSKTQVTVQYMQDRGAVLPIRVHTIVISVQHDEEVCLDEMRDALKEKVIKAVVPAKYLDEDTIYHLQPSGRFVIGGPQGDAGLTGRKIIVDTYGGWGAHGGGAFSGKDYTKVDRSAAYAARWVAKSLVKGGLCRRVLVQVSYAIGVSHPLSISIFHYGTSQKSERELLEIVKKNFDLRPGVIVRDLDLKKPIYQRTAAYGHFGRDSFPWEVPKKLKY
Format: biochemical
Method: (§1) The ability of the compound of present disclosure to inhibit MAT2A enzyme was determined using a Phosphate Sensor Fluorescence Assay described below.
(§2) MAT2A enzyme is incubated with a test compound in DMSO or DMSO and its substrates (L-methionine and ATP) in a microtiter plate. The enzymatic reaction is stopped by the addition of Working Phosphate Sensor Mixture. The plate is analyzed for fluorescence at 450 nm. The high control (DMSO with enzyme and its substrates) gives high fluorescence which represents no inhibition of enzymatic activity while the low control (DMSO with MAT2A substrates and no enzyme) gives low fluorescence which represents full inhibition of enzymatic activity.
Human MAT2A: Cepter, amino acids 1-395
Assay Buffer: 50 mM Tris, pH 7.5/50 mM KCl/10 mM MgCl2/0.01% Brij-35/1 mM DTT/0.1% BGG/40 nM PNP/6 uM 7-MEG
MAT2A: 10 nM for Cepter clone ID 329, lot 00023-123 before the addition of Working Phosphate Sensor Mixture • 5 nM for Cepter clone ID 334, lot 00023-148 before the addition of Working Phosphate Sensor Mixture
(§3) L-methionine: 500 uM before the addition of Working Phosphate Sensor Mixture
ATP: 500 uM before the addition of Working Phosphate Sensor Mixture Procedure:
(§4) For the assay, a mixture of 1 mM L-methionine/1 mM ATP (2× final pre-stopped concentration) in assay buffer; MAT2A (2× final pre-stopped concentration) in Assay Buffer and Working Phosphate Sensor Mixture (1.5 uM Phosphate Sensor/30 mM EDTA in Assay Buffer, which is 3× final concentrations) were prepared. Test compounds or DMSO were added to the appropriate well suing D300e digital dispenser. 5 μl/well of Assay Buffer was added to the wells corresponding to the negative control and 5 μl/well of MAT2A was added to all the wells except for those corresponding to the negative control. After incubating the plate at room temperature for 15 minutes, 5 μl/well of the 1 mM L-methionine/1 mM ATP mixture was added to all wells. The plate was centrifuged at 1000 rpm for 1 minute and then incubated at room temperature for 1 hour. 5 μl of the Working Phosphate Sensor Mixture was added to all wells and the plate was centrifuged at 1000 rpm for 1 minute. The plate was read for fluorescence at 450 nm after exciting at 430 nm.
(§5) Percent inhibition was calculated in Chemical and Biological Information System (CBIS), (ChemInnovation Software Inc.). Curves were fitted by CBIS as % inhibition vs. log [compound concentration] using a 4-parameter inhibition model.
(§6) Fit=(A+((B−A)/(1+((C/x)^D))))
(§7) Compounds 1.001-1.021 were tested using the procedure described in Biological Example A, described above. Compounds 1.022-1.026 were tested using the procedure described in Biological Example B, described above.
Molecule `O=c1[nH]c2ccccc2c(-c2ccccc2)c1Sc1ncnc2sccc12` [Compound 1.002] has an IC50 of 500 to 1000 nM. Molecule `O=c1[nH]c2ccc(Cl)cc2c(-c2ccccc2)c1S(=O)(=O)c1ccccc1` [Compound 1.003] has an IC50 of 1000 to 10000 nM. In the case of `COc1c(-c2ccccc2)c2cc(Cl)ccc2[nH]c1=O` [Compound 1.004, 6-chloro-3-methoxy-4-phenylquinolin-2(1H)-one], the IC50 is reported as 200 to 500 nM. For `CS(=O)(=O)c1c(-c2ccccc2)c2cc(Cl)ccc2[nH]c1=O` [Compound 1.005, 6-chloro-3-(methylsulfonyl)-4-phenylquinolin-2(1H)-one], the IC50 was 1000 to 10000 nM. Work on `O=c1[nH]c2ccc(Cl)cc2c(-c2ccccc2)c1Sc1ncnc2sccc12` [Compound 1.006, 6-chloro-4-phenyl-3-(thieno[2,3-d]pyrimidin-4-ylthio)quinolin-2(1H)-one] yielded an IC50 of 1000 to 10000 nM. `CN(C)c1c(-c2ccccc2)c2cc(Cl)ccc2[nH]c1=O` [Compound 1.008, 6-chloro-3-(dimethylamino)-4-phenylquinolin-2(1H)-one] gave an IC50 of 1000 to 10000 nM. `COc1c(-c2ccccc2)c2cc(Br)ccc2[nH]c1=O` [Compound 1.009, 6-bromo-3-methoxy-4-phenylquinolin-2(1H)-one] was tested, and the IC50 was 10 to 200 nM. In the case of `O=c1[nH]c2ccc(Cl)cc2c(-c2ccccc2)c1O` [Compound 1.010, 6-chloro-3-hydroxy-4-phenylquinolin-2(1H)-one], the IC50 is reported as 10 to 200 nM. Molecule `COc1c(-c2ccccc2)c2cc(C3CC3)ccc2[nH]c1=O` [Compound 1.011, 6-cyclopropyl-3-methoxy-4-phenylquinolin-2(1H)-one] has an IC50 of 10 to 200 nM. In the case of `COc1c(-c2cccnc2)c2cc(Cl)ccc2[nH]c1=O` [Compound 1.012, 6-chloro-3-methoxy-4-(pyridin-3-yl)quinolin-2(1H)-one], the IC50 is reported as 200 to 500 nM. `O=c1[nH]c2ccc(Cl)cc2c(-c2ccccc2)c1Sc1nc2ccccc2s1` [Compound 1.013, 3-(benzo[d]thiazol-2-ylthio)-6-chloro-4-phenylquinolin-2(1H)-one] was tested, and the IC50 was 1000 to 10000 nM. `CNS(=O)(=O)c1c(-c2ccccc2)c2cc(Cl)ccc2[nH]c1=O` [Compound 1.014, 6-chloro-N-methyl-2-oxo-4-phenyl-1,2-dihydroquinoline-3-sulfonamide] gave an IC50 of 1000 to 10000 nM. Work on `O=c1[nH]c2ccc(Cl)cc2c(-c2ccccc2)c1S` [Compound 1.015, 6-chloro-3-mercapto-4-phenylquinolin-2(1H)-one] yielded an IC50 of 10 to 200 nM. Work on `CCCNS(=O)(=O)c1c(-c2ccccc2)c2cc(Cl)ccc2[nH]c1=O` [Compound 1.016, 6-chloro-2-oxo-4-phenyl-N-propyl-1,2-dihydroquinoline-3-sulfonamide] yielded an IC50 of 1000 to 10000 nM. With `Cc1ccccc1-c1c(O)c(=O)[nH]c2ccc(Cl)cc12` [Compound 1.017, 6-chloro-3-hydroxy-4-(o-tolyl)quinolin-2(1H)-one] the IC50 was 10 to 200 nM. For `Cc1ccccc1-c1c(O)c(=O)[nH]c2ccc(C(F)(F)F)cc12` [Compound 1.018, 3-hydroxy-4-(o-tolyl)-6-(trifluoromethyl)quinolin-2(1H)-one], the IC50 was 10 to 200 nM. Work on `COc1c(-c2ccccc2)c2cc(C(F)(F)F)ccc2[nH]c1=O` [Compound 1.019, 3-methoxy-4-phenyl-6-(trifluoromethyl)quinolin-2(1H)-one] yielded an IC50 of 10 to 200 nM. `O=c1[nH]c2ccc(C(F)(F)F)cc2c(-c2ccccc2)c1O` [Compound 1.020, 3-hydroxy-4-phenyl-6-(trifluoromethyl)quinolin-2(1H)-one] gave an IC50 of 10 to 200 nM. With `O=c1[nH]c2ccc(Cl)cc2c(-c2ccccc2Cl)c1O` [Compound 1.021, 6-chloro-4-(2-chlorophenyl)-3-hydroxyquinolin-2(1H)-one] the IC50 was 10 to 200 nM.

Same assay, conditions: MAT2A enzyme inhibition, Biological Example A; 500 uM L-methionine, 500 uM ATP; given as bound
With `Cn1c(=O)cc(-c2ccccc2)c2cc(Cl)ccc21` [Compound 1.001, 6-chloro-1-methyl-4-phenylquinolin-2(1H)-one] the IC50 was greater than 10000 nM.

Same assay, conditions: MAT2A enzyme inhibition, Biological Example A; 500 uM L-methionine, 500 uM ATP; unit inferred
`CNc1c(-c2ccccc2)c2cc(Cl)ccc2[nH]c1=O` [Compound 1.007, 6-chloro-3-(methylamino)-4-phenylquinolin-2(1H)-one] showed an IC50 greater than 10000 nM.

The molecules below were run against T1, Human MAT2A (assay: Phosphate Sensor Fluorescence Assay (Biologic Example B)). Settings: MAT2A enzyme inhibition, Biological Example B; 5.8 nM MAT2A, 500 uM L-methionine, 500 uM ATP; class symbols.
Format: biochemical
Method: as §1, §2
MAT2A: 5.8 nM MAT2A (1-395), Cepter, clone ID 334, lot 00023-148 before the addition of Working Phosphate Sensor Mixture
as §3
ATP: 500 uM before the addition of Working Phosphate Sensor Mixture
as §4, with “well using a Beckman Coulter Echo 550 acoustic liquid handler. 10 µL/well” for “well suing D300e digital dispenser. 5 μl/well”, “and 10 µL/well” for “and 5 μl/well”, “minutes, 10 μL/well” for “minutes, 5 μl/well”, “hour. 10 μL” for “hour. 5 μl”, “430 nm on a Tecan Spark microplate reader.” for “430 nm.”
as §5, §6, §7
Work on `Cn1nccc1-c1c(O)c(=O)[nH]c2ccc(C(F)(F)F)cc12` [Compound 1.022, 3-Hydroxy-4-(1-methyl-1H-pyrazol-5-yl)-6-(trifluoromethyl)quinolin-2(1H)-one] yielded an IC50 of 10 to 200 nM. `Cc1ncccc1-c1c(O)c(=O)[nH]c2ccc(C(F)(F)F)cc12` [Compound 1.023, 3-Hydroxy-4-(2-methylpyridin-3-yl)-6-(trifluoromethyl)quinolin-2(1H)-one] was tested, and the IC50 was less than 10 nM. Work on `COc1cc(C(F)(F)F)cc2c(-c3ccccc3C)c(O)c(=O)[nH]c12` [Compound 1.024, 3-Hydroxy-8-methoxy-4-(o-tolyl)-6-(trifluoromethyl)quinolin-2(1H)-one] yielded an IC50 of 10 to 200 nM. With `Cc1ncccc1-c1c(O)c(=O)[nH]c2ccc(Br)cc12` [Compound 1.025, 6-Bromo-3-hydroxy-4-(2-methylpyridin-3-yl)quinolin-2(1H)-one] the IC50 was 10 to 200 nM. `Cc1ncccc1-c1c(O)c(=O)[nH]c2ccc(Cl)cc12` [Compound 1.026, 6-Chloro-3-hydroxy-4-(2-methylpyridin-3-yl)quinolin-2(1H)-one] gave an IC50 of 10 to 200 nM.
